Where “and” joins values, the source holds several entries; their conditions need not be identical. Equal values may be shown once.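 Five concentrations, 48 hours, 96-well plates. Abbreviation: GI50, concentration required for 50% inhibition of growth. TGI: total growth inhibition.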
What was measured:
Assay in all cases: DTP human tumour cell line panel, 48 h
[1] = system: UACC-257 melanoma
[2] = system: KM12 colon
[3] = system: COLO 205 colon
[4] = system: NCI-H522 lung
[5] = system: TK-10 renal
[6] = system: SF-268 CNS
[7] = system: SK-MEL-28 melanoma
[8] = system: SK-OV-3 ovarian
[9] = system: EKVX NSCLC
[10] = system: IGROV1 ovarian

O=NNc1nc(-c2cccnc2)nc2ccccc12
TGI [1]: > 100 µM
TGI [2]: > 100 µM
TGI [3]: > 100 µM
TGI [4]: > 100 µM
TGI [5]: > 100 µM
TGI [6]: > 100 µM
TGI [7]: > 100 µM
TGI [8]: > 100 µM
TGI [9]: > 100 µM
TGI [10]: > 100 µM

CC(=O)O[C@@H]1CC2C(C)(C)CCCC2(C)C2=C1C(=O)C(C(C)C)=CC2=O (stereo partly specified)
GI50 [1]: 1.55 µM
TGI [1]: 4.29 µM
GI50 [2]: 1.14 µM
TGI [2]: 2.68 µM
GI50 [3]: 1.88 µM
TGI [3]: 4.11 µM
GI50 [4]: 1.76 µM
TGI [4]: 3.98 µM
GI50 [5]: 2.51 µM
TGI [5]: > 100 µM
GI50 [6]: 1.39 µM
TGI [6]: 38.1 µM
GI50 [7]: 0.691 µM
TGI [7]: 3.43 µM
GI50 [8]: 3.26 µM
TGI [8]: 8.5 µM
GI50 [9]: 1.02 µM
TGI [9]: 6.88 µM
GI50 [10]: 1.49 µM
TGI [10]: 4.87 µM

Nc1cc(N)c(N)cc1N
GI50 [1]: 1.55 µM
TGI [1]: 3.05 µM
GI50 [2]: 2.88 µM
TGI [2]: 10.7 µM
GI50 [3]: 1.81 µM
TGI [3]: 3.43 µM
GI50 [4]: 1.48 µM
TGI [4]: 2.9 µM
GI50 [5]: 3.68 µM
TGI [5]: 14.5 µM
GI50 [6]: 3.06 µM
TGI [6]: 12.2 µM
GI50 [7]: 2.03 µM
TGI [7]: 3.88 µM
GI50 [8]: 7.12 µM
TGI [8]: 42.2 µM
GI50 [9]: 2.7 µM
TGI [9]: 8.02 µM
GI50 [10]: 2.17 µM
TGI [10]: 4.83 µM

C=C(C)C(=O)O[C@H]1[C@H]2[C@H](OC(=O)[C@H]2C)[C@H](O)[C@@H](C)[C@@H]2C=CC(=O)[C@]21C
TGI [1]: 7.73 µM
TGI [2]: 7.38 µM
TGI [3]: 9.97 µM
TGI [4]: 2.68 µM
TGI [5]: 8.09 µM
TGI [6]: 12.6 µM
TGI [7]: 5.85 µM
TGI [8]: 18.3 µM
TGI [9]: 14.8 µM
TGI [10]: 7 µM

COc1nc2nccc-2c2occn12
TGI [1]: > 100 µM
TGI [2]: > 100 µM
TGI [3]: > 100 µM
TGI [4]: > 100 µM
TGI [5]: > 100 µM
TGI [6]: > 100 µM
TGI [7]: > 100 µM
TGI [8]: > 100 µM
TGI [9]: > 100 µM
TGI [10]: > 100 µM

CN(C)CCOc1ccc2c(c1)C/C(=C/c1ncc([N+](=O)[O-])n1C)C2=O
TGI [1]: 14.7 µM
TGI [2]: 11.6 µM
TGI [3]: 3.33 µM
TGI [4]: 3.02 µM
TGI [5]: 10.9 µM
TGI [6]: 9.1 µM
TGI [7]: 33.4 µM
TGI [8]: 15 µM
TGI [9]: 18 µM
TGI [10]: 1.49 µM

COc1cc(-c2cn(-c3ccc(Cl)cc3)c(C)c2C(=O)C(F)(F)F)cc(OC)c1OC
GI50 [1]: 14.1 µM
TGI [1]: > 100 µM
GI50 [2]: > 100 µM
TGI [2]: > 100 µM
GI50 [3]: > 100 µM
TGI [3]: > 100 µM
GI50 [4]: 37 µM
TGI [4]: > 100 µM
GI50 [5]: > 100 µM
TGI [5]: > 100 µM
GI50 [6]: > 100 µM
TGI [6]: > 100 µM
GI50 [7]: > 100 µM
TGI [7]: > 100 µM
GI50 [8]: > 100 µM
TGI [8]: > 100 µM
GI50 [9]: 51.3 µM
TGI [9]: > 100 µM
GI50 [10]: > 100 µM
TGI [10]: > 100 µM

O=C(O)c1cc(=O)c2[nH]c3ccccc3c2s1
TGI [1]: > 100 µM
TGI [2]: > 100 µM
TGI [3]: > 100 µM
TGI [4]: > 100 µM
TGI [5]: > 100 µM
TGI [6]: > 100 µM
TGI [7]: > 100 µM
TGI [8]: > 100 µM
TGI [9]: > 100 µM
TGI [10]: > 100 µM

CCOc1ccc(NCc2cc(OC)c(OC)c(OC)c2)cc1
TGI [1]: > 100 µM
TGI [2]: > 81.5 µM and 46.4 µM
TGI [3]: 2.46 µM and 5.04 µM
TGI [4]: 1.78 µM and 2.55 µM
GI50 [5]: > 100 µM
TGI [5]: > 100 µM
TGI [6]: > 100 µM
TGI [7]: > 100 µM
TGI [8]: 22.8 µM and 24.8 µM
TGI [9]: > 100 µM
TGI [10]: > 84 µM

Oc1ccc(CCCCCCc2ccc(O)cc2)cc1
GI50 [1]: 13.9 µM
TGI [1]: 28.4 µM
GI50 [2]: 6.54 µM
TGI [2]: 19.8 µM
GI50 [3]: 15.2 µM
TGI [3]: 29.4 µM
GI50 [4]: 5.98 µM
TGI [4]: 24.2 µM
GI50 [5]: 19.7 µM
TGI [5]: > 57.3 µM
GI50 [6]: 3.89 µM
TGI [6]: 17.5 µM
GI50 [7]: 17 µM
TGI [7]: 31.5 µM
GI50 [8]: 11.8 µM
TGI [8]: 34.1 µM
GI50 [9]: 10.3 µM
TGI [9]: 26.7 µM
GI50 [10]: 8.83 µM
TGI [10]: 28.4 µM

OCc1ccc(-c2nn(Cc3ccccc3)c3ccccc23)o1
GI50 [1]: 0.268 µM and 0.32 µM
TGI [1]: 0.972 µM and 1.59 µM
GI50 [2]: 16.9 µM and 16.6 µM
TGI [2]: 35.2 µM and 34.5 µM
GI50 [3]: 8.05 µM and 5.73 µM
TGI [3]: 26.2 µM and 21.7 µM
GI50 [4]: 12 µM and 20.6 µM
TGI [4]: 28.2 µM and > 58.7 µM
GI50 [5]: 0.253 µM and 0.489 µM
TGI [5]: 1.02 µM and 3.61 µM
GI50 [6]: 18.6 µM and 19 µM
TGI [6]: 65.8 µM and 51.1 µM
GI50 [7]: 16.9 µM and 15.7 µM
TGI [7]: 36.5 µM and 47.5 µM
GI50 [8]: 20.7 µM and 17.6 µM
TGI [8]: 57.1 µM and 43.9 µM
GI50 [9]: 18.9 µM and 22.9 µM
TGI [9]: 72.7 µM and 58.9 µM
GI50 [10]: 0.508 µM and 0.288 µM
TGI [10]: 22.5 µM and > 93.1 µM

CC(=O)Nc1ccc2c(c1)oc(=O)c1cc(NC(C)=O)ccc12
GI50 [1]: > 100 µM
TGI [1]: > 100 µM
GI50 [2]: 21.7 µM
TGI [2]: 52.5 µM
GI50 [3]: 41.7 µM
TGI [3]: > 100 µM
GI50 [4]: 55.7 µM
TGI [4]: > 100 µM
GI50 [5]: 98.7 µM
TGI [5]: > 100 µM
GI50 [6]: 50.5 µM
TGI [6]: > 100 µM
GI50 [7]: > 100 µM
TGI [7]: > 100 µM
GI50 [8]: > 100 µM
TGI [8]: > 100 µM
GI50 [9]: > 100 µM
TGI [9]: > 100 µM
GI50 [10]: 83.4 µM
TGI [10]: > 100 µM

CCCCCCCCCCCCCCCCCCCCCC(=O)Nc1ccn(C2OC(CO)C(O)C2O)c(=O)n1 (stereo unspecified)
TGI [1]: > 100 µM
TGI [2]: > 100 µM
TGI [3]: > 100 µM
TGI [4]: > 100 µM
TGI [5]: > 100 µM
TGI [6]: > 100 µM
TGI [7]: > 100 µM
TGI [8]: > 100 µM
TGI [9]: > 100 µM
TGI [10]: > 100 µM

COc1cc([C@@H]2c3cc4c(cc3[C@@H](NC(=O)c3ccccc3)C3COC(=O)[C@@H]32)OCO4)cc(OC)c1O (stereo partly specified)
TGI [1]: 48.1 µM
TGI [2]: 28.3 µM
TGI [3]: 92.8 µM
TGI [4]: 26.2 µM
TGI [5]: 92.5 µM
TGI [6]: > 100 µM
TGI [7]: 87.7 µM
TGI [8]: > 100 µM
TGI [9]: 87.1 µM
TGI [10]: 25.7 µM

CC1OC2CC(=O)OC2C2=C1C(=O)c1c(O)c3c(c(O)c1C2=O)C1CC(O)C3(O)C(C)O1 (stereo unspecified)
GI50 [1]: 0.212 µM
TGI [1]: 0.525 µM
GI50 [2]: 0.664 µM
TGI [2]: 2.02 µM
GI50 [3]: 0.186 µM
TGI [3]: 0.453 µM
GI50 [4]: 0.195 µM
TGI [4]: 0.447 µM
GI50 [5]: 0.302 µM
TGI [5]: 1.12 µM
GI50 [6]: 0.303 µM
TGI [6]: 1.15 µM
GI50 [7]: 1.21 µM
TGI [7]: 2.74 µM
GI50 [8]: 3.24 µM
TGI [8]: 11.1 µM
GI50 [9]: 0.534 µM
TGI [9]: 1.8 µM
GI50 [10]: 0.329 µM
TGI [10]: 1.7 µM

COC(=O)C1C2C=CC(C2)N1[C@@H](C)c1ccccc1 (stereo partly specified)
TGI [1]: > 100 µM
TGI [2]: > 100 µM
TGI [3]: > 100 µM
TGI [4]: > 100 µM
TGI [5]: > 100 µM
TGI [6]: > 100 µM
TGI [7]: > 100 µM
TGI [8]: > 100 µM
TGI [9]: > 100 µM
TGI [10]: > 100 µM

CCCCCCCCCCCCCCCC(=O)OCC1OC(n2c(O)c(N=NC(N)=S)c3ccc([N+](=O)[O-])cc32)C(OC(C)=O)C1OC(C)=O (stereo unspecified)
TGI [1]: > 100 µM
TGI [2]: > 100 µM
TGI [3]: > 100 µM
TGI [4]: > 100 µM
TGI [5]: > 100 µM
TGI [6]: > 100 µM
TGI [7]: > 100 µM
TGI [8]: > 100 µM
TGI [9]: > 100 µM
TGI [10]: > 100 µM

CC(C)CC1=[N+]=C(NC#N)N=C(CCC(=O)Nc2ccccc2[N+](=O)[O-])C1
TGI [1]: > 100 µM
TGI [2]: > 100 µM
TGI [3]: > 100 µM
TGI [4]: > 100 µM
TGI [5]: > 100 µM
TGI [6]: > 100 µM
TGI [7]: > 100 µM
TGI [8]: > 100 µM
TGI [9]: > 100 µM
TGI [10]: > 100 µM

Cc1cc(C(C#N)c2ccc(Cl)cc2)c(Cl)cc1NC(=O)c1cc(I)cc(I)c1O (stereo unspecified)
GI50 [1]: 14.4 µM and 15.1 µM
TGI [1]: 28.1 µM and 29.6 µM
GI50 [2]: 13.7 µM and 15.9 µM
TGI [2]: 29.8 µM and 30.5 µM
GI50 [3]: 15.2 µM and 16.2 µM
TGI [3]: 28.8 µM and 29.7 µM
GI50 [4]: 3.48 µM and 17.8 µM
TGI [4]: 10.5 µM and 47.2 µM
GI50 [5]: 11.8 µM and 22.4 µM
TGI [5]: 33.9 µM and 65.4 µM
GI50 [6]: 7.58 µM and 13.8 µM
TGI [6]: 22.2 µM and 31.3 µM
GI50 [7]: 5.42 µM and 14.8 µM
TGI [7]: 19.7 µM and 30.3 µM
GI50 [8]: 15.6 µM and 15.8 µM
TGI [8]: 29.2 µM and 29.5 µM
GI50 [9]: 6.71 µM and 13.2 µM
TGI [9]: 31.1 µM and 33.7 µM
GI50 [10]: 10.5 µM and 16.1 µM
TGI [10]: 40.9 µM and 36.5 µM

C[C@H]1[C@H](C)CC[C@]2(C(=O)O)CC[C@]3(C)C(=CC[C@@H]4[C@@]5(C)C/C(=C/c6cccnc6)[C@H](O)C(C)(C)[C@@H]5CC[C@]43C)[C@H]12
GI50 [1]: 21 µM
TGI [1]: 81.2 µM
GI50 [2]: 7.61 µM
TGI [2]: 36.1 µM
GI50 [3]: 14.6 µM
TGI [3]: 32.4 µM
GI50 [4]: 13 µM
TGI [4]: 94.3 µM
GI50 [5]: 28.4 µM
TGI [5]: > 100 µM
GI50 [6]: 24.3 µM
TGI [6]: > 100 µM
GI50 [7]: 13.7 µM
TGI [7]: 34.6 µM
GI50 [8]: 19.9 µM
TGI [8]: > 100 µM
GI50 [9]: 13.3 µM
TGI [9]: 87.6 µM
GI50 [10]: 26.4 µM
TGI [10]: > 100 µM

From PubChem BioAssay (NCI)
